Experimental data: patent publication US20160008431A1, “Tumor Therapy With Antitumor Agents In Combination With Sindbis Virus-Based Vectors” (priority 2008, published 2016)
“Also recorded” adds a separate entry of the source.

Legend:
[1] = in human; cited from earlier work
s.c. N2a tumors = experiment: s.c. N2a neuroblastoma model: vascular leakiness, vector transduction, tumor growth; assay type: in vivo, SCID mice; conditions: for tumor vascular permeability / leakiness (AngioSense signals): metronomic i.p. Paclitaxel 16 mg/Kg or Cisplatin 4 mg/Kg
Description: FIG. 7A-7D. […] We used 1:1 RD-Sindbis/LacZ:RC-Sindbis/Fluc mixture as a control. AngioSense® 750 (0.66 nmol) was i.v. injected on day 1. […] B, quantitative presentation of luciferase signals in tumors. C and D, quantitative presentation of AngioSense® signals of tumors receiving indicated treatments.
A, relative growth curves of s.c. N2a tumors treated with Paclitaxel alone (Taxol®) or untreated (Ctrl). B, relative tumor growth curves of different treatment groups as in FIG. 5.
FIG. 9A-9C. […] Starting on day 0, daily treatments of Cisplatin (4 mg/Kg or 12 mg/m^2 compared with maximum tolerated dose of 100 mg/m^2 in humans) were i.p. injected into SCID mice bearing s.c. N2a tumors. One last Cisplatin treatment was administrated on day 4. A, to visualize vascular leakiness, AngioSense® 750 (0.66 nmol) was i.v. injected on day 1 and imaged on day 2. B, RC-Sindbis/Fluc was i.v. injected on day 0 and day 2. Luciferase activities in tumors that indicated active vector propagation were monitored on day 3. C, relative tumor growth curves of different treatment groups.
All animal experiments were performed in accordance with NIH and institutional guidelines. BHK cells (1.5×10^6/mouse) were s.c. inoculated into SCID mice (female, 6-8 week old, Taconic, Germantown, N.Y.). The mouse neuroblastoma tumors were induced by s.c. injection of 1.5×10^6 N2a cells into SCID mice 13 days prior to treatments. For better visualization, we remove excessive fur on the skin over the tumor and its surrounding region. The setting for dual mPlum/AngioSense imaging is as following: ex605/em660, 680 and 700 nm, followed by ex745/em800, 820 and 840 nm. Bioluminescent imaging of luciferase activities was performed as described before (7). Tumor sizes were measured using the formula: π/6×length (mm)×width (mm)^2.
In order to test whether chemotherapeutic agents synergize with Sindbis vector in tumor eradication by modulating vascular leakiness, we used a s.c. mouse N2a neuroblastoma model.
We used a replication-competent (RC) Sindbis/Fluc vector (21) instead of an RD one to further enhance the tumor transduction signal output (FIG. 7B) in N2a tumors. RC vector carries a full set of viral structural genes to support its replication. Specific tumor infection of RC vector could result in oncolytic effects by intratumoral vector replication and amplification. […] To ensure temporary expression of VEGF, we used replication defective RD-Sindbis/VEGF mixed with RC-Sindbis/Fluc (1:1).

ES2/Fluc tumors [2] = experiment: Sindbis+CPT-11 ES2/Fluc tumor survival experiment; assay type: in vivo, Es1^c/SCID mice; conditions: untreated mice survived about 4 weeks; i.p. treatment 4 times a week for 5 weeks from day 5
Description: FIGS. 1A and 1B: Survival of tumor-bearing mice treated with Sindbis+CPT-11. (A) Mice were injected with 1.5×10^6 ES2/Fluc cells on day 0. Mice were then divided into 4 groups of 10. Treatment started on day 5, and lasted for 5 weeks, in which mice were treated 4 times a week. Mice treated with Sindbis/LacZ received I.P. injection of ˜10^7 plaque-forming units of the vector in 0.5 mL OptiMEM; mice treated with CPT-11 received I.P. injections of 15 mg/kg body weight of the recipient of CPT-11 in […]. Mice treated with the combined treatments were treated with Sindbis/LacZ and CPT-11 on the same day (Sindbis/LacZ in the morning, and CPT-11 in the evening). […] The experiment was repeated twice (for a total of 20 mice per group), and the results were combined into one graph. (B) Tumor load in mice treated with Sindbis/LacZ+CPT-11. On day 4 after injecting the mice with 10 million ES2/Fluc cells, tumors developed in various IP locations (top). […]
C.B-17 SCID mice (Taconic, Germantown, N.Y.) were bred with a plasma esterase deficient mouse model—Es1^c Foxn1^nu/J (Jackson laboratory, Bar Harbor, Me.). […] Briefly, blood was collected from F2 mice, and was tested by FACS analysis to determine T and B cell levels, and the plasma esterase activity was measured using a nitrophenyl acetate assay (Spectrum, Gardena, Calif.). […]

[3] = tested on: luciferase-expressing Mia Paca cells; experiment: Mia Paca pancreatic cancer model, Sindbis vectors with and without CPT-11; assay type: in vivo, Es1/SCID mice; conditions: treated 4 times a week for 2 weeks; images since day 18
Description: FIG. 3 is a graph showing the effect of Sindbis virus vectors with and without CPT-11 treatment on pancreatic cancer in Mia Paca mice, a model for pancreatic cancer.
Female Es1/SCID mice were inoculated intraperitoneally with 5 million luciferase-expressing Mia Paca cells (a model for pancreatic cancer) on day 0. Mice were then divided into 4 groups: Mock (untreated), Sindbis/LacZ treated, CPT-11 treated, and Sindbis/LacZ+CPT-11 treated. The mice were treated 4 times a week, for 2 weeks, and then the treatment was stopped.

cancer cells = experiment: Pretreatment of cancer cells with drug, susceptibility to Sindbis vector; assay type: cell-based; conditions: data not shown
ES2/Fluc tumors [4] = experiment: Sindbis+Taxol ES2/Fluc tumor growth and survival experiment; assay type: in vivo, SCID mice
Description: FIG. 2A-2D: Survival and tumor load in tumor-bearing mice treated with Sindbis+Taxol®. Mice were injected with 4×10^6 ES2/Fluc cells on day 0. Mice were then divided into 4 groups of 9. Mice were treated with Sindbis/LacZ (I.P.) daily from day 1 to day 11, and with Taxol® (0.4 mg/mouse) on day 3, 6 and 10. (B) Quantitative analysis of tumor growth, day 1 tumor load signal was set at 100% for each individual mouse for comparison with later images (day 3, 6, and 10). (C) Mouse survival was monitored. (D) The surviving mice were imaged on day 46 to determine if they have any tumors.
Sindbis+Taxol® ES2/Fluc tumor growth and survival experiment: Female SCID mice (8-12 weeks old) received intraperitoneal injections of 4×10^6 ES2/Fluc cells on day 0, and tumor growth was validated by imaging the mice on day 1. For quantitative analysis of tumor growth, day 1 tumor load signal was set as 100% for each individual mouse for comparison with subsequent images. Mice (nine per group) were treated with Sindbis/LacZ (I.P.) daily from day 1 to day 11, and with Taxol® (0.4 mg/mouse) on day 3, 6 and 10. Mice were imaged on days 1, 3, 6, 10, and 46. A tumor free mouse was used as a negative control.

endothelium cells = conditions: cited from earlier work

Compound | maximum tolerated dose [1] | Sindbis vector delivery and transduction (luciferase signals in tumors) (s.c. N2a tumors; RC-Sindbis/Fluc vector) | tumor vascular permeability / leakiness (AngioSense signals) (s.c. N2a tumors) | therapeutic efficacy in combination with Sindbis vectors (s.c. N2a tumors; relative tumor growth curves, FIG. 8B, 9C) | additional survival compared with untreated mice (ES2/Fluc tumors [2]) | tumor status on images [3] | susceptibility of pretreated cancer cells to Sindbis vector (cancer cells) | tumor growth, drug alone (s.c. N2a tumors; relative growth curves, FIG. 8A) | tumor level of survivors on day 46 (ES2/Fluc tumors [4]; IVIS imaging, compared with tumor-free mouse) | tumor load / tumor growth by imaging (ES2/Fluc tumors [4]; days 3, 6 and 10, day 1 signal set at 100%) | mice surviving on day 46 (ES2/Fluc tumors [4]; nine mice per group, treatment stopped for 35 days) | sensitivity of endothelium cells relative to tumor cells, times more sensitive (endothelium cells)
N.N.[Cl][Pt][Cl] [Cisplatin] | 100 mg/m^2 | enhanced | significantly increased; also recorded: enhancement in tumor vascular leakiness | better therapeutic efficacy |  |  |  |  |  |  |  | 
CCc1c2c(nc3ccc(OC(=O)N4CCC(N5CCCCC5)CC4)cc13)-c1cc3c(c(=O)n1C2)COC(=O)[C@]3(O)CC [CPT-11, irinotecan] |  |  |  |  | 15 days | have tumors that appear to be growing |  |  |  |  |  | 
CC(=O)O[C@H]1C(=O)[C@@]2(C)[C@H]([C@H](OC(=O)c3ccccc3)[C@]3(O)C[C@H](OC(=O)[C@H](O)[C@@H](NC(=O)c4ccccc4)c4ccccc4)C(C)=C1C3(C)C)[C@]1(OC(C)=O)CO[C@@H]1C[C@@H]2O [Paclitaxel] | 175 mg/m^2 |  | significantly increased; also recorded: enhance tumor vascular leakiness |  |  |  | does not enhance | suppresses tumor growth | much higher tumor levels | still show tumor growth | one | 10-100
